ChEMBL document CHEMBL1123787, “Radioiodinated p-iodoclonidine: a high-affinity probe for the alpha 2-adrenergic receptor” (J Med Chem, 1987)

Target: T1, Adrenergic receptor alpha-2 (Homo sapiens, UniProt P08913+P18825+P18089)
T1 sequence (P08913 whole entry): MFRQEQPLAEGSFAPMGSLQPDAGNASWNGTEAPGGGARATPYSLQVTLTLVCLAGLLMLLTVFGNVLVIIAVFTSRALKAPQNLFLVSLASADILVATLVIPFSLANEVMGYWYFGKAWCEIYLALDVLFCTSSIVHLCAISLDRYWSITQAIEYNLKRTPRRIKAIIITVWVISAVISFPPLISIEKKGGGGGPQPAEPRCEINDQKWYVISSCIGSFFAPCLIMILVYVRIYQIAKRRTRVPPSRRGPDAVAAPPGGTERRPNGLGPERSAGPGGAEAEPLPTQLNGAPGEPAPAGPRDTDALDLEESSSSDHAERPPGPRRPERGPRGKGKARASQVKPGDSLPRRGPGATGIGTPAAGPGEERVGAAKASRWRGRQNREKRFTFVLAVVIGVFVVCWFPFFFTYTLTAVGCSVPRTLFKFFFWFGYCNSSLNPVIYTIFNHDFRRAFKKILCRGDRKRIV
T1 sequence (P18825 whole entry): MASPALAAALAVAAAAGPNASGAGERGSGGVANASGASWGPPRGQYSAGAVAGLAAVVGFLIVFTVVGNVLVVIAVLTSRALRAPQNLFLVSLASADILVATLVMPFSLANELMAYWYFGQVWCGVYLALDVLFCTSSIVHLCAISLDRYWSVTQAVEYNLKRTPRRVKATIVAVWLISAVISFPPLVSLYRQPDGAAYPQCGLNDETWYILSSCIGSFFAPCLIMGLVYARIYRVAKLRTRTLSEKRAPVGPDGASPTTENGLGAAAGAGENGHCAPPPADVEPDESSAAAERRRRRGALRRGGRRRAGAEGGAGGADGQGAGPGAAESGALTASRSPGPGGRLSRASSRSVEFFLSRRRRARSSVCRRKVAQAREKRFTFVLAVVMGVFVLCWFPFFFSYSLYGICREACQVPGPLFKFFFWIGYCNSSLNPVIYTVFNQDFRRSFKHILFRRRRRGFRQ
T1 sequence (P18089 whole entry): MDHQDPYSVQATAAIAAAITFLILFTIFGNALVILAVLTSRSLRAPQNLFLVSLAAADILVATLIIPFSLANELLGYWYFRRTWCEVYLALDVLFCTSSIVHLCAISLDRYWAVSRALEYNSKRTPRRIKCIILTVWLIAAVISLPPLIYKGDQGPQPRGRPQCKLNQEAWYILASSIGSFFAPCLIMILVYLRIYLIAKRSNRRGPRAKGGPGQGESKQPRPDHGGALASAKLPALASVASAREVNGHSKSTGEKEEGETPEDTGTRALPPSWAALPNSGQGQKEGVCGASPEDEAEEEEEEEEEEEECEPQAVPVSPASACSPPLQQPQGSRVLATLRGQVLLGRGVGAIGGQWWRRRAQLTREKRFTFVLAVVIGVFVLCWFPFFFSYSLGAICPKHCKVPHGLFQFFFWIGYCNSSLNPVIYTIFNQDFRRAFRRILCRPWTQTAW

Row | SMILES | IC50 [µM]
1 | O=[N+]([O-])c1cc(Cl)c(N=C2NCCN2)c(Cl)c1 | 10
2 | Clc1cc(N=NN2CCCC2)cc(Cl)c1NC1=NCCN1 | 2
